Patent publication US10577634B2, “Bioconversion process for producing nylon-7, nylon-7,7 and polyesters” (INVISTA North America S.A.R.L., priority 2011, dated 2020)

How the values were obtained:
ACOT3 (formerly PTE-1a) = target: T1, ACOT3 (formerly PTE-1a) (Mus musculus, UniProt Q9QYR7); settings: free CoASH; cited from earlier work
T1 construct: His-tag; host or cells: E. coli
T1 sequence (Q9QYR7 1-432): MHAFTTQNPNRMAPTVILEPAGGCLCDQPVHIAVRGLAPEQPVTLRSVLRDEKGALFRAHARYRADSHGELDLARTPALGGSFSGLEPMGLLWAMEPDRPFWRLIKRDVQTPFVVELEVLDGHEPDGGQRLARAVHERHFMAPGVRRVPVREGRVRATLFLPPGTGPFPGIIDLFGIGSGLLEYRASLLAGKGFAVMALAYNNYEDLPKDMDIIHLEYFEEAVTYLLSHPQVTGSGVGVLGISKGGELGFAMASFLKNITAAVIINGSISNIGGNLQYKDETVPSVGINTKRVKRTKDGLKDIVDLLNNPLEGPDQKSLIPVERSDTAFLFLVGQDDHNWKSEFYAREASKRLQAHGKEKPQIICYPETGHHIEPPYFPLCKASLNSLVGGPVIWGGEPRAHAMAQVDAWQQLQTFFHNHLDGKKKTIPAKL

ACOT5 (formerly PTE-1c) = target: T2, ACOT5 (formerly PTE-1c) (Mus musculus, UniProt Q6Q2Z6); settings: free CoASH; cited from earlier work
T2 construct: His-tag; host or cells: E. coli
T2 sequence (Q6Q2Z6 1-421): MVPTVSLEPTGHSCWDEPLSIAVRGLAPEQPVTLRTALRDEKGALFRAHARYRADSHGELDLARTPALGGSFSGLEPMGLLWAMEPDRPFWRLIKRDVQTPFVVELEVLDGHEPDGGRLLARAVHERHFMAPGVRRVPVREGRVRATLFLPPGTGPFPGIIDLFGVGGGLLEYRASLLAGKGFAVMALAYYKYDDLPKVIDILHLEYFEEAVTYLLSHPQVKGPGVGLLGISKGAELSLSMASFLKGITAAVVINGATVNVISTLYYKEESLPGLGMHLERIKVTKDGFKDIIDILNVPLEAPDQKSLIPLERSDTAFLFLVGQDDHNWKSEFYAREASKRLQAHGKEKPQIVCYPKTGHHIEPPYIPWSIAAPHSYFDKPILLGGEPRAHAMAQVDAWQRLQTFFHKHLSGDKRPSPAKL

[1] = target: T3, ACOT4 peroxisomal acyl-CoA thioesterase 4 (Mus musculus, UniProt Q8BWN8); settings: CoASH at concentrations up to 500 μM; cited from earlier work
T3 construct: His-tag; host or cells: E. coli
T3 sequence (Q8BWN8 1-421): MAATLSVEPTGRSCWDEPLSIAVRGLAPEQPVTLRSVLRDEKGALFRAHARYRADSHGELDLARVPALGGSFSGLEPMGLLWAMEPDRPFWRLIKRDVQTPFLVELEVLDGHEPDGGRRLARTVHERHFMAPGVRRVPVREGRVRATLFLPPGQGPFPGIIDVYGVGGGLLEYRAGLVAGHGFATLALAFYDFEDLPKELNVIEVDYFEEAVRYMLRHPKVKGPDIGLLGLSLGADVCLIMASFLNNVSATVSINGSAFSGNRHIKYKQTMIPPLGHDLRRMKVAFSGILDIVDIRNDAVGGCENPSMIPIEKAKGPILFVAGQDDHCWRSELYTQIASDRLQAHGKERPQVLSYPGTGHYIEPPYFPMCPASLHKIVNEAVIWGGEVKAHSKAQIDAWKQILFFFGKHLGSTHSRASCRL

[2] = target: T4, ACOT8 peroxisomal acyl-CoA thioesterase 8 (Mus musculus, UniProt P58137); settings: inhibition of ACOT8; cited from earlier work
T4 construct: His-Tag; host or cells: E. coli
T4 sequence (P58137 1-320): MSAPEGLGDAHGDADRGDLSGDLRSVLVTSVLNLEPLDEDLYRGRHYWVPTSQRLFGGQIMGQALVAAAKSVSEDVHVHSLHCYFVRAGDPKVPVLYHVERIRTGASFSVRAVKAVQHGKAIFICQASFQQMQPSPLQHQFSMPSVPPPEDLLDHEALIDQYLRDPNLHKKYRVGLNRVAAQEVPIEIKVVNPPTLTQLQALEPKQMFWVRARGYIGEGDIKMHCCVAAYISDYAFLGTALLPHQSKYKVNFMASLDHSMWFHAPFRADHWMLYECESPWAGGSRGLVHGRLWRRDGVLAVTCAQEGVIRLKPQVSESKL

[3] = target: T5, AAR acyl-ACP reductase (YP_400611) (Synechococcus elongatus, UniProt Q54765); settings: substrate of AAR, octadecanal formed, NADPH-dependent; cited from earlier work
T5 construct: host or cells: E. coli MG1655
T5 sequence (Q54765 1-341): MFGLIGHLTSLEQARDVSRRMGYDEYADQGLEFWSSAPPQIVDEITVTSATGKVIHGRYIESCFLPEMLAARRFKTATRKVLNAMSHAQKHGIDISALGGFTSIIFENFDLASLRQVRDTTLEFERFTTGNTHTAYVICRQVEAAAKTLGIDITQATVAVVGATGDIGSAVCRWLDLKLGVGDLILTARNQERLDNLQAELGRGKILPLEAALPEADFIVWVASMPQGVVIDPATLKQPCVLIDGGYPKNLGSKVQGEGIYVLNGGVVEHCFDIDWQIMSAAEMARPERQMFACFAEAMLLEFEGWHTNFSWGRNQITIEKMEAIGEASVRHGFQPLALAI

[4] = target: T6, Nocardia sp. carboxylic acid reductase (CAR) (Nocardia iowensis, UniProt Q6RKB1); assay: Spectrophotometric carboxylic acid reductase (CAR) activity assay, change in absorbance at 340 nm; assay type: biochemical; settings: for Adjusted for background: gradient of change in absorbance at 340 nm adjusted for background; for gradient of trend line: rate of change in absorbance at 340 nm, CAR cell free extract, substrate added after 2 minutes; for Relative rate % compared to benzoate: relative rate of change in absorbance at 340 nm
T6 construct: made in house; host or cells: E. coli BL-21 (DE3) RP1pPV2-85; cell free extract
T6 sequence (Q6RKB1 1-1174): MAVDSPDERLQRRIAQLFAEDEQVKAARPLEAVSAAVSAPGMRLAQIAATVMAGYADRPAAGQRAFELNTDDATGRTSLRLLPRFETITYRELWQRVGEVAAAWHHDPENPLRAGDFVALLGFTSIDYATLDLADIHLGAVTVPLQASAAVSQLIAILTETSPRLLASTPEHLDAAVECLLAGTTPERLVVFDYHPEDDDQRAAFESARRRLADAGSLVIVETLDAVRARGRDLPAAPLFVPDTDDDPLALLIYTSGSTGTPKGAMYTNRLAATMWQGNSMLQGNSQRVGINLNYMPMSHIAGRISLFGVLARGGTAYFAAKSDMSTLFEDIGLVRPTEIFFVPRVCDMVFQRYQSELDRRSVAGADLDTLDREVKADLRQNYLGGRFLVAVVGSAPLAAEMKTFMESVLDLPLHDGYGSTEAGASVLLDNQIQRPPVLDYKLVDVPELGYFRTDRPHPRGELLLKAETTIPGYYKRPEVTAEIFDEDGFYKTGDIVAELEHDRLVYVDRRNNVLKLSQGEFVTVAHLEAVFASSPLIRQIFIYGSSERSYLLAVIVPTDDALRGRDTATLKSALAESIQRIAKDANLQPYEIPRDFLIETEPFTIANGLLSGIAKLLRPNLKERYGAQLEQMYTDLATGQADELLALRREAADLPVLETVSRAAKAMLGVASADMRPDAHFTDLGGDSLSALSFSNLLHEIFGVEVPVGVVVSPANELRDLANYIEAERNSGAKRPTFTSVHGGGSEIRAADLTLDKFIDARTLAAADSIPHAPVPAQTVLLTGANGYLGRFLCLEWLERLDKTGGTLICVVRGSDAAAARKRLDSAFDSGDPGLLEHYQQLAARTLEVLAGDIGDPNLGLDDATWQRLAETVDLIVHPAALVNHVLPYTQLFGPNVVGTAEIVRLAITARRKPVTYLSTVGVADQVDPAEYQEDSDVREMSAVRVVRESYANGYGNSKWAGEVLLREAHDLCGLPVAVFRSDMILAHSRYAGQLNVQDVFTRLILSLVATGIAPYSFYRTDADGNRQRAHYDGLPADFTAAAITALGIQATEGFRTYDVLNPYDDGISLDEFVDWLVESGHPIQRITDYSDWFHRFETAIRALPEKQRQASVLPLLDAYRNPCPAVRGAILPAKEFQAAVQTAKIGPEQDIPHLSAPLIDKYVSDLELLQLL
Description: The conditions for the assay were taken from Applied and Environmental Microbiology 2004, 70, p 1874-1881.
In a quartz cuvette the following reagents were added: 100 μL MgCl2, 100 μL, ATP, 100 μL NADPH, 200 μL Tris.HCl buffer. The absorbance at 340 nm was measured and recorded and 100 μL of CAR cell free extract was added. The absorbance was monitored and recorded. […] The absorbance monitored over time was subtracted from the initial measurement.

[5] = target: T7, Amino adipate aminotransferase (Q64602) (Bos taurus, UniProt Q5E9N4); settings: in the presence of pimelic acid; cited from earlier work
T7 construct: Purification and properties of 2-aminoadipate: 2-oxoglutarate aminotransferase from bovine kidney; host or cells: bovine kidney
T7 sequence (Q5E9N4 30-425, one chain of several): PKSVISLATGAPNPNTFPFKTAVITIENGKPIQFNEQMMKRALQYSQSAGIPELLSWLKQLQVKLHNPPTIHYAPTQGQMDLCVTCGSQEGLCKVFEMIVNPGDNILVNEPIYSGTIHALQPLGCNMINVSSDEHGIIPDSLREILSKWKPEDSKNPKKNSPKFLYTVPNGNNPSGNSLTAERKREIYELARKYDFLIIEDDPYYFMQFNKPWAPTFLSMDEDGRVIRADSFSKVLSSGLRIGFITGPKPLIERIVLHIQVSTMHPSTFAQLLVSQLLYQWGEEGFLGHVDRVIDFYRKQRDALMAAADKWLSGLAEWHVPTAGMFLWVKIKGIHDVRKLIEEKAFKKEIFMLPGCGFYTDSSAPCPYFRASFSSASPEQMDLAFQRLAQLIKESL

[6] = system: PauA catabolic pimeloyl-CoA ligase; settings: substrate accepted by PauA, pimelate = 100%; cited from earlier work

Compound	Km [3] [µM]	Adjusted for background [4]	gradient of trend line [4]	Relative rate % compared to benzoate [4] [%]	further results
CC(C)(COP(=O)(O)OP(=O)(O)OC[C@H]1O[C@@H](n2cnc3c(N)ncnc32)[C@H](O)[C@@H]1OP(=O)(O)O)[C@@H](O)C(=O)NCCC(=O)NCCS [CoASH]	–	–	–	–	inhibition (ACOT3 (formerly PTE-1a)): no inhibition; inhibition (ACOT5 (formerly PTE-1c)): no inhibition; inhibition of the reaction [1]: not inhibited; IC50 [2]: 10 to 15 µM
CCCCCCCC/C=C\CCCCCCCC(=O)SCCNC(=O)CCNC(=O)[C@H](O)C(C)(C)COP(=O)(O)OP(=O)(O)OC[C@H]1O[C@@H](n2cnc3c(N)ncnc32)[C@H](O)[C@@H]1OP(=O)(O)O [oleoyl-CoA]	130	–	–	–	–
O=C(O)CCCCCC(=O)O [pimelic acid]	–	–	–	–	activity relative to the activity for benzoic acid ([4]; reduction to pimelic acid semialdehyde by CAR from Nocardia): > 50%; reduction in activity [5]: 30%; relative activity [6]: 100%
O=C([O-])c1ccccc1.[Na+] [sodium benzoate]	–	0.00133	0.0141	100	–
O=C([O-])CCCCCC(=O)[O-].[Na+].[Na+] [sodium pimelate]	–	0.0068	0.0076	51.1	–
oleoyl-ACP	8	–	–	–	–
